# Data published in patent US8410126B2, “Pyrimidine inhibitors of PKTK2” (Boehringer Ingelheim International GmbH, priority 2009, dated 2013).
# Molecular target: T1, PTK2 (Homo sapiens, UniProt Q05397)
# T1 construct: purchased Invitrogen PV3832
# Test: PTK2 enzyme test Assay 1 (DELFIA, poly-Glu-Tyr substrate, PT60 antibody)
# Type: biochemical
# Conditions: Assay 1 (values without *); 1 h pre-incubation, 50 μM ATP mix, final DMSO 2%
# Description: This test uses active PTK2 enzyme (Invitrogen Code PV3832) and poly-Glu-Tyr (4:1, Sigma P-0275) as the kinase substrate. The kinase activity is detected through the phosphorylation of the substrate in a DELFIA™ assay. The phosphorylated substrate is detected with the europium-labelled phosphotyrosine antibody PT60 (Perkin Elmer, No.: AD00400).
# In order to determine concentration-activity curves with PTK2-inhibitors the compounds are serially diluted in 10% DMSO/H2O and 10 μL of each dilution are placed in each well of a 96-well microtitre plate (clear plate with a U-shaped base, Greiner No. 650101) (the inhibitors are tested in duplicates) and mixed with 10 μL/well of PTK2 kinase (0.01 μg/well). PTK2 kinase has been correspondingly diluted beforehand with kinase dilution buffer (20 mM TRIS/HCl pH 7.5, 0.1 mM EDTA, 0.1 mM EGTA, 0.286 mM sodium orthovanadate, 10% glycerol with the addition of freshly prepared BSA (fraction V, 1 mg/mL) and DTT (1 mM)). The test compound and the PTK2 kinase are pre-incubated for 1 h at RT and shaken at 500 revolutions per min. The reaction is started by the addition of 10 μL/well poly (Glu,Tyr) substrate (25 μg/well poly (Glu, Tyr), 0.05 μg/well biotinylated poly (Glu,Tyr) dissolved in 250 mM TRIS/HCl pH 7.5, 9 mM DTT)—the final concentration of DMSO is 2%. Then 20 μL of ATP Mix (30 mM TRIS/HCl pH 7.5, 0.02% Brij, 0.2 mM sodium orthovanadate, 10 mM magnesium acetate, 0.1 mM EGTA, 1× phosphatase inhibitor cocktail 1 (Sigma, No.: P2850), 50 μM ATP (Sigma, No.: A3377; 15 mM stock solution)) are added. After 1 h of kinase reaction (the plates are shaken at 500 rpm), the reaction is stopped by the addition of 12 μL/well 100 mM EDTA, pH 8.0 and shaken for a further 5 min at RT (500 rpm). 55 μL of the reaction mixture are transferred into a streptavidin plate (Strepta Well High Bind (transparent, 96-well) made by Roche, No.: 11989685001) and incubated for 1 h at RT (shaking at 500 rpm). Then the microtitre plate is washed three times with 200 μL/well D-PBS (Invitrogen, No. 14190). 100 μL of a solution containing DELFIA Eu-N1 Anti-Phosphotyrosine PT60 antibody (Perkin Elmer, No.: AD0040, diluted 1:2000 in DELFIA test buffer (Perkin Elmer, No.: 1244-111)) is then added and the mixture is incubated for 1 h at RT (shaking at 500 rpm). Then the plate is washed three times with 200 μL/well DELFIA washing buffer (Perkin Elmer, No.: 1244-114), 200 μL/well strengthening solution (Perkin Elmer, No.: 1244-105) are added and the mixture is incubated for 10 min at RT (shaking at 300 rpm).
# The time-delayed europium fluorescence is then measured in a microtitre plate reader (VICTOR^3, Perkin Elmer). […] Wells that contain test buffer instead of enzyme are used as a control of the background kinase activity.
# The IC50 values are determined from analyses of the concentration activity by iterative calculation with the aid of a sigmoid curve analysis algorithm (FIFTY, based on GraphPAD Prism Version 3.03) with a variable Hill coefficient.
# T1 sequence (Q05397 whole entry): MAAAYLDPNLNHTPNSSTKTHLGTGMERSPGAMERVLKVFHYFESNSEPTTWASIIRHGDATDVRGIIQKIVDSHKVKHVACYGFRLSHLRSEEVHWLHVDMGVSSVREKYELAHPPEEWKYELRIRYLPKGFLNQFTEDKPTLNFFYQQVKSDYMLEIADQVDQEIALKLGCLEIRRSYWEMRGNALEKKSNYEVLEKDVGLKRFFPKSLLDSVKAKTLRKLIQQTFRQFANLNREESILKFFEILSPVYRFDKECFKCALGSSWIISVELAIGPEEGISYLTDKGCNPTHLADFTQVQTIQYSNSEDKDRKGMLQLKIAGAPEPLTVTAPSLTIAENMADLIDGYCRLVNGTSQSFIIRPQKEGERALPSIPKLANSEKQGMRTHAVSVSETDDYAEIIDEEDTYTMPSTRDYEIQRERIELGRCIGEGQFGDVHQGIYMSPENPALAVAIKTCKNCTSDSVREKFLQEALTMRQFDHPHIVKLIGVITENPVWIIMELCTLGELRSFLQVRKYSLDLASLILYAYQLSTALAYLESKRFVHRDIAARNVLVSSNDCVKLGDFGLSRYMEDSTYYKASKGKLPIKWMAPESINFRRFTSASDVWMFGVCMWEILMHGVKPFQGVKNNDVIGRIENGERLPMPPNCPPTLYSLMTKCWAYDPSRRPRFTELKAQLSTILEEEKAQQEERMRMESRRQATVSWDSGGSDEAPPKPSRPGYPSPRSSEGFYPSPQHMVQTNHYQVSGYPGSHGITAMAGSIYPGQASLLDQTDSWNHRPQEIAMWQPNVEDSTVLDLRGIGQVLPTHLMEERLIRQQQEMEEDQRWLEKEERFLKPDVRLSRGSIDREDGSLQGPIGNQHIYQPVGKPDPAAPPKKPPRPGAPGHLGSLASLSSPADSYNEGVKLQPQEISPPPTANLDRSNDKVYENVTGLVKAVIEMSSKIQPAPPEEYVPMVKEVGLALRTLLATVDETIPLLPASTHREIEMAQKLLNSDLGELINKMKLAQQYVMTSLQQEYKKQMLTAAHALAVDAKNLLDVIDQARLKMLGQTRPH
row,SMILES,IC50 [nM]
1,COc1cc(C(=O)NC2CCC(N3CCOCC3)CC2)ccc1Nc1ncc(C(F)(F)F)c(N[C@@H]2Cc3ccccc3[C@H]2NC(C)=O)n1 (stereo partly drawn) [Example I-19],3
2,"COc1cc(N2CCN(C)CC2)ccc1Nc1ncc(C(F)(F)F)c(N[C@@H]2Cc3ccccc3[C@H]2N(C)S(C)(=O)=O)n1 [Example I-39, N-((1R,2R)-2-{2-[2-methoxy-4-(4-methyl-piperazin-1-yl)-phenylamino]-5-trifluoromethyl-pyrimidin-4-ylamino}-indan-1-yl)-N-methyl-methanesulphonamide]",3
3,COc1cc(C(=O)NCCN(C)C)c(Cl)cc1Nc1ncc(C(F)(F)F)c(N[C@@H]2Cc3ccccc3[C@H]2N(C)S(C)(=O)=O)n1 [Example I-58],4
4,COc1cc(N2CCN(CC(=O)N(C)C)CC2)ccc1Nc1ncc(C(F)(F)F)c(N[C@@H]2Cc3ccccc3[C@H]2N(C)S(C)(=O)=O)n1 [Example I-40],3
5,CNC(=O)c1cc(OC)c(Nc2ncc(C(F)(F)F)c(N[C@@H]3Cc4ccccc4[C@H]3N(C)S(C)(=O)=O)n2)cc1F [Example I-49],6
6,COc1cc(C(=O)NC2CCOCC2)c(F)cc1Nc1ncc(C(F)(F)F)c(N[C@@H]2Cc3ccccc3[C@H]2N(C)S(C)(=O)=O)n1 [Example I-50],8
7,COCCN1CCC(NC(=O)c2ccc(Nc3ncc(C(F)(F)F)c(N[C@@H]4Cc5ccccc5[C@H]4NC(C)=O)n3)c(OC)c2)CC1 [Example I-13],3
8,CNC(=O)c1ccc(Nc2ncc(C(F)(F)F)c(N[C@@H]3Cc4ccccc4[C@H]3NS(C)(=O)=O)n2)c(OC)c1 [Example I-10],2
9,"COc1cc(C(=O)NC2CCN(C)CC2)ccc1Nc1ncc(C(F)(F)F)c(N[C@@H]2Cc3ccccc3[C@H]2N(C)S(C)(=O)=O)n1 [Example I-5, 4-{4-[(1R,2R)-1-(methanesulphonyl-methyl-amino)-indan-2-ylamino]-5-trifluoromethyl-pyrimidin-2-ylamino}-3-methoxy-N-(1-methyl-piperidin-4-yl)-benzamide]",2
10,COc1cc(C(=O)NC2CCOCC2)ccc1Nc1ncc(C(F)(F)F)c(N[C@@H]2Cc3ccccc3[C@H]2NC(C)=O)n1 [Example I-15],4
11,COc1cc(N2CCN(CC3CC3)CC2)ccc1Nc1ncc(C(F)(F)F)c(N[C@@H]2Cc3ccccc3[C@H]2N(C)S(C)(=O)=O)n1 [Example I-56],3
12,COc1cc(NC(C)=O)ccc1Nc1ncc(C(F)(F)F)c(N[C@@H]2Cc3ccccc3[C@H]2N(C)S(C)(=O)=O)n1 [Example I-90],3
13,COc1cc(C(=O)NC2CCN(C)CC2)ccc1Nc1ncc(C(F)(F)F)c(N[C@@H]2Cc3ccccc3[C@H]2NC(C)=O)n1 [Example I-1],2
14,CNCc1ccc(Nc2ncc(C(F)(F)F)c(N[C@@H]3Cc4ccccc4[C@H]3NS(C)(=O)=O)n2)c(OC)c1 [Example I-9],2
15,COc1cc(N2CCN(C3COC3)CC2)ccc1Nc1ncc(C(F)(F)F)c(N[C@@H]2Cc3ccccc3[C@H]2N(C)S(C)(=O)=O)n1 [Example I-57],3
16,"COc1cc(C(=O)NCCN(C)C)ccc1Nc1ncc(C(F)(F)F)c(N[C@@H]2Cc3ccccc3[C@H]2NS(C)(=O)=O)n1 [Example I-3, N-(2-dimethylamino-ethyl)-4-[4-((1R,2R)-1-methanesulphonylamino-indan-2-ylamino)-5-trifluoromethyl-pyrimidin-2-ylamino]-3-methoxy-benzamide]",2
17,CNC(=O)c1ccc(Nc2ncc(Cl)c(N[C@@H]3Cc4ccccc4[C@H]3N(C)S(C)(=O)=O)n2)c(OC)c1 [Example I-34],7

# Second part, the compound after the results:
row,IC50 [nM],SMILES
1,1,COc1cc(C(=O)NCCN(C)C)ccc1Nc1ncc(C(F)(F)F)c(N[C@@H]2Cc3ccccc3[C@H]2NC(C)=O)n1 [Example I-20]
2,0.98,"COc1cc(N2CCNCC2)ccc1Nc1ncc(C(F)(F)F)c(N[C@@H]2Cc3ccccc3[C@H]2N(C)S(C)(=O)=O)n1 [Example I-70, N-{(1R,2R)-2-[2-(2-methoxy-4-piperazin-1-yl-phenylamino)-5-trifluoromethyl-pyrimidin-4-ylamino]-indan-1-yl}-N-methyl-methanesulphonamide]"
3,1,COc1cc(C(=O)NC2CCC(N3CCN(CC4CC4)CC3)CC2)ccc1Nc1ncc(C(F)(F)F)c(N[C@@H]2Cc3ccccc3[C@H]2N(C)S(C)(=O)=O)n1 (stereo partly drawn) [Example I-7]
4,2,COc1cc(C(=O)NC2CCN(C)CC2)ccc1Nc1ncc(C(F)(F)F)c(N[C@@H]2Cc3ccccc3[C@H]2NS(C)(=O)=O)n1 [Example I-8]
5,1,"COc1cc(C(=O)NC2CCN(C)CC2)ccc1Nc1ncc(Br)c(N[C@@H]2Cc3ccccc3[C@H]2N(C)S(C)(=O)=O)n1 [Example I-98, 4-{5-bromo-4-[(1R,2R)-1-(methanesulphonyl-methyl-amino)-indan-2-ylamino]-pyrimidin-2-ylamino}-3-methoxy-N-(1-methyl-piperidin-4-yl)-benzamide]"
6,2,COc1cc(N2CCN(C)CC2)ccc1Nc1ncc(C(F)(F)F)c(N[C@@H]2Cc3ccccc3[C@H]2NC(C)=O)n1 [Example I-26]
7,2,"COc1cc(C(=O)NC2CCN(C)CC2)c(F)cc1Nc1ncc(C(F)(F)F)c(N[C@@H]2Cc3ccccc3[C@H]2N(C)S(C)(=O)=O)n1 [Example I-46, 2-fluoro-4-{4-[(1R,2R)-1-(methanesulphonyl-methyl-amino)-indan-2-ylamino]-5-trifluoromethyl-pyrimidin-2-ylamino}-5-methoxy-N-(1-methyl-piperidin-4-yl)-benzamide]"
8,1,COCCN1CCN(c2ccc(Nc3ncc(C(F)(F)F)c(N[C@@H]4Cc5ccccc5[C@H]4N(C)S(C)(=O)=O)n3)c(OC)c2)CC1 [Example I-84]
9,2,COc1cc(C(=O)NC2CCCN(C)C2)ccc1Nc1ncc(C(F)(F)F)c(N[C@@H]2Cc3ccccc3[C@H]2NC(C)=O)n1 (stereo partly drawn) [Example I-14]
10,2,COc1cc(CN2CCOCC2)ccc1Nc1ncc(C(F)(F)F)c(N[C@@H]2Cc3ccccc3[C@H]2NC(C)=O)n1 [Example I-38]
11,0.76,COc1cc(Nc2ncc(C(F)(F)F)c(N[C@@H]3Cc4ccccc4[C@H]3N(C)S(C)(=O)=O)n2)ccc1C(=O)NC1CCN(C)CC1 [Example I-64]
12,1,"COc1cc(C(=O)NC2CCN(C)CC2)c(Cl)cc1Nc1ncc(C(F)(F)F)c(N[C@@H]2Cc3ccccc3[C@H]2N(C)S(C)(=O)=O)n1 [Example I-60, 2-chloro-4-{4-[(1R,2R)-1-(methanesulphonyl-methyl-amino)-indan-2-ylamino]-5-trifluoromethyl-pyrimidin-2-ylamino}-5-methoxy-N-(1-methyl-piperidin-4-yl)-benzamide]"
13,0.96,COc1cc(C(=O)NC2CCCN(C)C2)ccc1Nc1ncc(C(F)(F)F)c(N[C@@H]2Cc3ccccc3[C@H]2N(C)S(C)(=O)=O)n1 (stereo partly drawn) [Example I-6]
14,0.83,COc1cc(C(=O)NOCCN(C)C)ccc1Nc1ncc(C(F)(F)F)c(N[C@@H]2Cc3ccccc3[C@H]2N(C)S(C)(=O)=O)n1 [Example I-59]
15,1,COc1cc(C(=O)NC2CCN(C)CC2)c(C)cc1Nc1ncc(C(F)(F)F)c(N[C@@H]2Cc3ccccc3[C@H]2N(C)S(C)(=O)=O)n1 [Example I-53]
16,1,COc1cc(C(=O)NC2CCN(C)CC2)c(C)cc1Nc1ncc(Cl)c(N[C@@H]2Cc3ccccc3[C@H]2N(C)S(C)(=O)=O)n1 [Example I-68]
17,1,COCCN1CCC(NC(=O)c2ccc(Nc3ncc(C(F)(F)F)c(N[C@@H]4Cc5ccccc5[C@H]4N(C)S(C)(=O)=O)n3)c(OC)c2)CC1 [Example I-65]
18,1,COc1cc(C(=O)NCCN(C)C)c(F)cc1Nc1ncc(C(F)(F)F)c(N[C@@H]2Cc3ccccc3[C@H]2N(C)S(C)(=O)=O)n1 [Example I-48]
19,0.84,COc1cc(C(=O)NCCN(C)C)c(C)cc1Nc1ncc(C(F)(F)F)c(N[C@@H]2Cc3ccccc3[C@H]2N(C)S(C)(=O)=O)n1 [Example I-54]
